# Measured values as given in patent publication US9688637B2, “3-amidobenzamides and uses thereof for increasing cellular levels of A3G and other A3 family members” (Northwestern University, priority 2014, dated 2017).
# How the values were obtained:
# Wild-type HIV-1 [1] = test: A3G-mediated restriction of wild-type HIV-1; virus from 293T stably expressing A3G, TZM-bl readout; format: cell-based; details: Human immunodeficiency virus 1, HEK-293T, read-out: A3G-mediated Restriction by Compounds on Wild-type HIV-1 (% of HIV replication relative to DMSO treated Control)
# Protocol: (§1) To test the effect of compounds shown to boost A3G-Luc levels in our screening systems on inhibition of wild-type HIV-1 replication by A3G or A3F, 293T cell lines stably expressing A3G or A3F were plated (750,000 cells per well in 6-well plate). At 24 hrs post plating, 1.5 μg of a wild-type (Vif-positive) HIV-1 proviral vector, NL4.3, was transfected into the 293T stable cell lines expressing either A3G or A3F. At 4 hrs post transfection, either DMSO as a control or an individual compound from series described below was added into the culture medium at a 10 μM concentration. At 1 day post transfection, supernatant fluids containing viral particles were filtered through […] filter to remove cellular debris. To test the effect of compound on HIV-1 replication, TZM-bl indicator cells were plated at a density of 10,000 cells/well in a 96 well culture plate 24 hrs prior to infection. TZM-bl indicator cells express luciferase gene under the control of HIV LTR promoter and are routinely used to measure HIV-1 replication capability. On the day of infection, the culture medium was removed and the cells inoculated with equal amount of HIV-1 particles in triplicate with 100 μl of viral supernatants in culture medium containing 20 μg/ml DEAE-dextran. After 24 hrs of incubation, culture medium was removed from each well and replaced with 100 μl of Britelite Plus luciferase assay substrate. Following 5 min. of incubation at room temperature, 75 μl of each cell lysate was transferred to a 96-well OptiPlate 96 and luminescence was measured in a VICTOR X2 Multilabel Reader as described above. Relative infectivity was calculated by plotting luciferase activity from viral particle from DMSO treated A3G or A3F cell lines as 100%. We only tested effect A3F- or A3G mediated restriction of HIV-1 replication by compounds boosting luciferase activity by more than 160% compared to DMSO control sample.
# Wild-type HIV-1 [2] = test: A3F-mediated restriction of wild-type HIV-1; virus from 293T stably expressing A3F, TZM-bl readout; format: cell-based; details: Human immunodeficiency virus 1, HEK-293T, read-out: A3F-mediated Restriction by Compounds on Wild-type HIV-1 (% of HIV replication relative to DMSO treated Control)
# Protocol: as §1
# A3G-Luc/Vif = A3G-Luc/Vif luciferase screen in 293T cells stably co-expressing A3G-Luc and HIV-1 Vif; format: cell-based, human; details: for Vif-A3G-Luc Activity (% of RLUs compared to DMSO treated control): 10 μM, 48 hrs, DMSO = 100%
# HEK293 = test: Cancer cell death, cell numbers vs DMSO; format: cell-based, human; details: 6 μM, 16 days; embryonic kidney cell line lacking A3B, wild-type functional p53
# From the text: To test the effect of the compounds described below on cancer cell death, cell lines derived from different types of cancer were studied in vitro. MCF10A, MCF7, T47D, MDA-MB-157 and MDA-MB-231 are breast cancer cell lines. NHPrE, BHPrE, RWPE1, DU145, and PC3 cells are prostate cell lines. HeLa is cervical cancer cell line. HEK293 is human embryonic kidney cell line lacking A3B expression. There are differences among these cancer cell lines in p53 expression (44-46). MCF10A, MCF7, NHPrE, BHPrE and HEK293 cells have wild-type and functional p53. RWPE1 and HeLa cells have wild-type p53 but the p53 protein in these cell line is not functional because of effects of human papilloma virus E6 protein. T47D, MDA-MB-231, and DU145 cell lines have mutant p53, while MDA-MB-157 and PC3 cells have no p53 expression. 25,000 cells per well were plated in 6 well plates. In the case of HEK293 cells. 500,000 cells per well in 6-well plates were used instead. After 24 hrs, culture medium was replaced with new medium containing either DMSO as control or one of the compounds described below (6 μM per well concentration). After 8 days incubation with compounds, cell numbers were counted from each well and plotted with number of cells from DMSO treated sample as 100%. We performed the experiments at least twice. HEK293, MCF7 and T47D cells they were maintained for 16 days with compounds instead of 8 days.
# wild type A3F = molecular target: T1, wild type A3F (Homo sapiens, UniProt Q8IUX4); test: Steady state A3 protein level by immunoblot in transiently transfected 293T cells; format: cell-based; details: 293T transiently transfected, immunoblot (FIG. 7)
# T1 construct: expressed in transfected cells; host or cells: 293T, transient transfection
# T1 sequence (Q8IUX4 whole entry): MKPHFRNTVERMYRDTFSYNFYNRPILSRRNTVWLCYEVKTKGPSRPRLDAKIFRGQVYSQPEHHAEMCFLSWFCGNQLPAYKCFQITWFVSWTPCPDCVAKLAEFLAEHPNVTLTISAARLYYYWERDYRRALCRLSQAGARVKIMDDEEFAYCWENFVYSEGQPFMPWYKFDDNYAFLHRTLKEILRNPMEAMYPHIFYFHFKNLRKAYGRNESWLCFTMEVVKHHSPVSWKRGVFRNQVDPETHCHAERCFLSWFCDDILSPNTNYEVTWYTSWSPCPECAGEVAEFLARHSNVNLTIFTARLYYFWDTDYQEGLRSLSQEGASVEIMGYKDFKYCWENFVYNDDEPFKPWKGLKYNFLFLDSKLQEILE
# Protocol: (§2) FIG. 7. 293T cells were transiently transfected with 400 ng of expression vectors for wild type A3G (A3G), a mutant A3G (A3G Y124A), and A3F (A3F) to test effect of NU52 treatment on steady state levels of the respective A3 protein, as detected by immunoblotting with respective antibodies, with GAPDH as loading control.
# mutant Y124A A3G = molecular target: T2, mutant Y124A A3G (Homo sapiens, UniProt Q9HC16, Y124A); test: as above; format: cell-based; details: 293T transiently transfected, immunoblot (FIG. 7)
# T2 construct: expressed in transfected cells; host or cells: 293T, transient transfection
# T2 sequence (Q9HC16 whole entry Y124A): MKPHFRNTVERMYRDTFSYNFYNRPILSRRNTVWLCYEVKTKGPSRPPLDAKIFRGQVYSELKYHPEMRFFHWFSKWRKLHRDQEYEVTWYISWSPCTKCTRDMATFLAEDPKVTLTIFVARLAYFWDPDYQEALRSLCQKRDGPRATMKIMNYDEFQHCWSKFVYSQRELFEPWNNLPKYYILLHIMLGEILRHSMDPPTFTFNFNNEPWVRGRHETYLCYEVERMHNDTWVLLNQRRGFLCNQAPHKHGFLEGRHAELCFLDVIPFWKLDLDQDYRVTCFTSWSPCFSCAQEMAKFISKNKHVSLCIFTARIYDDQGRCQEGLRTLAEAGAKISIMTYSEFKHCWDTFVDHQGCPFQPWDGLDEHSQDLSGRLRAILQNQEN
# Protocol: as §2
# wild type A3G = molecular target: T3, wild type A3G (Homo sapiens, UniProt Q9HC16); test: as above; format: cell-based; details: 293T transiently transfected, immunoblot (FIG. 7)
# T3 construct: expressed in transfected cells; host or cells: 293T, transient transfection
# T3 sequence (Q9HC16 whole entry): as the sequence (Q9HC16 whole entry Y124A) above, with A124Y counted along it
# Protocol: as §2
# HIV NL4-3 = test: Infectivity of virions from 293T co-transfected with NL4-3 and A3G, TZM-bl cells; format: cell-based, HIV-1; details: co-transfection of 293T with HIV NL4-3 and A3G (FIG. 8)
# Protocol: FIG. 8. 293T cells were co-transfected with […] of NL4.3 plasmid DNA and 400 ng of either control or A3F/G DNAs, with or without NU52. Infectivity of equal amounts of resulting viruses (normalized by HIV-1 p24 antigen) were measured using TZM-bl cells. NU-52 treatment of producer cell reduced infectivity of virus produced from those cells.
Structure (SMILES),activity at 10 µM (Wild-type HIV-1 [1]),activity at 10 µM (Wild-type HIV-1 [2]),Vif-A3G-Luc Activity (% of RLUs compared to DMSO treated control) (A3G-Luc/Vif),cell killing (cell numbers vs DMSO) (HEK293),expression of wild type A3F (wild type A3F),expression of mutant Y124A A3G (mutant Y124A A3G),expression of wild type A3G (wild type A3G),"increase of A3G (A3G-Luc/Vif; 293T stably expressing A3G-Luc, with Vif (FIG. 6))",infectivity of virions (HIV NL4-3)
COc1ccc(C(=O)Nc2ccc(Cl)c(Cl)c2)cc1NC(=O)CC1CC1 [NU-466],72%,59%,202%,not killed,,,,,
COc1ccc(C(=O)Nc2ccc(Cl)c(Cl)c2)cc1NC(=O)C1CCC1 [NU-302],60%,58%,167%,not killed,,,,,
COc1ccc(C(=O)Nc2ccc(Cl)c(Cl)c2)cc1NC(=O)C(C)C [NU-52],57%,57%,135%,not killed,increased,increased,increased,about 3 fold,decreased infectivity
